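Following 48 hours of exposure in 96-well plates, responses at five concentrations were used to interpolate endpoints linearly. GI50: concentration for 50% inhibition of growth.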 Active and inactive are the calls of the source. Cut-off read from the data, not from the text of the source: active = GI50 up to about 1.1 µM and inactive = higher.
Assays:
Assay in all cases: NCI-60 cell line screen, 48 h
786-0 = system: 786-0
CAKI-1 = system: CAKI-1
CCRF-CEM = system: CCRF-CEM
HT-29 = system: HT-29
K562 = system: K562
MDA-MB-435 = system: MDA-MB-435
MDA-N = system: MDA-N
Malme-3M = system: Malme-3M
NCI-H226 = system: NCI-H226
NCI-H460 = system: NCI-H460
OVCAR-4 = system: OVCAR-4
RPMI-8226 = system: RPMI-8226
RXF 393 = system: RXF 393
SF-268 = system: SF-268
SNB-19 = system: SNB-19
SR = system: SR
TK-10 = system: TK-10
UACC-62 = system: UACC-62
HL-60 = system: HL-60
T47D = system: T47D

Measured: GI50

Nc1ccc(-c2nc3ccc(Cc4ccc5nc(-c6ccc(N)cc6)oc5c4)cc3o2)cc1
inactive: 786-0 > 100 µM | CAKI-1 > 100 µM | CCRF-CEM > 100 µM | HT-29 > 100 µM | K562 44.5 µM | MDA-MB-435 82.4 µM | MDA-N > 100 µM | Malme-3M 40 µM | NCI-H226 > 100 µM | NCI-H460 > 100 µM | OVCAR-4 > 100 µM | RPMI-8226 > 100 µM | RXF 393 > 100 µM | SF-268 > 100 µM | SNB-19 > 100 µM | SR 12.7 µM | TK-10 > 100 µM | UACC-62 > 100 µM

O=[N+]([O-])c1ccc(-n2nc3ccc4c(no[n+]4[O-])c3n2)cc1
inactive: 786-0 > 100 µM | CAKI-1 > 100 µM | CCRF-CEM > 100 µM | HL-60 7.35 µM | HT-29 > 100 µM | K562 > 100 µM | MDA-MB-435 > 100 µM | MDA-N > 100 µM | Malme-3M > 100 µM | NCI-H226 > 100 µM | NCI-H460 33.2 µM | OVCAR-4 > 100 µM | SF-268 > 100 µM | SNB-19 > 100 µM | SR > 100 µM | T47D > 100 µM | TK-10 > 100 µM | UACC-62 88.3 µM

OC1[C@@H]2[C@@H](O)[C@H](O)[C@@H](O)N2C[C@@H]1O (some centres undefined)
inactive: 786-0 > 100 µM | CAKI-1 > 100 µM | CCRF-CEM > 100 µM | HT-29 > 100 µM | K562 > 100 µM | MDA-MB-435 > 100 µM | MDA-N > 100 µM | Malme-3M > 100 µM | NCI-H226 > 100 µM | NCI-H460 > 100 µM | OVCAR-4 > 100 µM | RXF 393 > 100 µM | SF-268 > 100 µM | SNB-19 > 100 µM | T47D > 100 µM | TK-10 > 100 µM | UACC-62 > 100 µM

Cc1ccc(Cc2nn(C)c(=O)n2N)cc1
inactive: 786-0 > 100 µM | CAKI-1 > 100 µM | HT-29 > 100 µM | K562 > 100 µM | MDA-MB-435 > 100 µM | MDA-N > 100 µM | NCI-H226 > 100 µM | NCI-H460 > 100 µM | OVCAR-4 > 100 µM | RPMI-8226 > 100 µM | SNB-19 > 100 µM | T47D > 100 µM | TK-10 > 100 µM | UACC-62 > 100 µM

Cc1occc1/C(S)=N\c1ccc(Cl)c(C(=O)OCC2CC2)c1
inactive: 786-0 44.9 µM | CAKI-1 5.81 µM | CCRF-CEM 20.7 µM | HL-60 28.4 µM | HT-29 34.7 µM | K562 18.8 µM | MDA-MB-435 75.3 µM | MDA-N 41.6 µM | Malme-3M 88.5 µM | NCI-H226 53.2 µM | NCI-H460 57.9 µM | OVCAR-4 32 µM | RPMI-8226 23.1 µM | SF-268 36.1 µM | SNB-19 54.2 µM | T47D 35 µM | TK-10 34.8 µM | UACC-62 31.3 µM

O=P(c1ccccc1)(c1ccccc1)c1ccc2c(c1)OCCOCCOCCOCCO2
inactive: 786-0 > 100 µM | CAKI-1 > 100 µM | CCRF-CEM > 100 µM | HL-60 > 100 µM | K562 > 100 µM | MDA-MB-435 > 100 µM | MDA-N > 100 µM | Malme-3M > 100 µM | NCI-H226 > 100 µM | NCI-H460 > 100 µM | RPMI-8226 > 100 µM | SF-268 > 100 µM | SNB-19 > 100 µM | SR > 100 µM | T47D > 100 µM | TK-10 > 100 µM | UACC-62 > 100 µM

C=C(CCC(C(=O)O)C1CCC2(C)C3=C(CCC12C)C1(C)CCC(O)C(C)(C)C1CC3)C(C)C (centres undefined)
inactive: 786-0 45.1 µM | CAKI-1 > 100 µM | CCRF-CEM > 10 µM | HL-60 > 10 µM | HT-29 32.7 µM | K562 14.2 µM | MDA-MB-435 > 100 µM | MDA-N 86.7 µM | NCI-H226 30.2 µM | NCI-H460 21.1 µM | OVCAR-4 43.1 µM | RPMI-8226 19.9 µM | SF-268 34.4 µM | SNB-19 > 100 µM | SR 12.1 µM | T47D 58.1 µM | TK-10 > 100 µM | UACC-62 34.9 µM

CC1CC[C@@H](C(C)C)[C@H](Oc2nnc(C3OC(CO)C(O)C3O)o2)C1 (some centres undefined)
inactive: 786-0 > 100 µM | CAKI-1 > 100 µM | CCRF-CEM > 100 µM | HL-60 > 100 µM | HT-29 > 100 µM | K562 > 100 µM | MDA-MB-435 > 100 µM | MDA-N > 100 µM | Malme-3M > 100 µM | NCI-H226 > 100 µM | NCI-H460 > 100 µM | OVCAR-4 > 100 µM | RPMI-8226 > 100 µM | RXF 393 > 100 µM | SF-268 > 100 µM | SNB-19 > 100 µM | T47D > 100 µM | TK-10 > 100 µM | UACC-62 > 100 µM

Oc1c(Br)cc(/C=C/c2ccnc(/C=C/c3cc(Br)c(O)c(Br)c3)c2)cc1Br
inactive: 786-0 18.2 µM | CAKI-1 35.5 µM | CCRF-CEM 22.6 µM | HL-60 14.5 µM | HT-29 21.7 µM | K562 24.2 µM | MDA-MB-435 26.7 µM | MDA-N 33.5 µM | NCI-H460 12.6 µM | OVCAR-4 30.3 µM | RPMI-8226 20.7 µM | SF-268 40.3 µM | SNB-19 35.8 µM | SR 17.8 µM | T47D 16.7 µM | TK-10 27.2 µM | UACC-62 24.3 µM

CCCCCCCN1C(=O)C(O)(c2ccc(C3(O)C(=O)N(CCCCCCC)c4ccccc43)s2)c2ccccc21 (centres undefined)
inactive: 786-0 1.91 µM | CCRF-CEM 3.87 µM | HL-60 1.56 µM | HT-29 1.78 µM | K562 2.99 µM | MDA-MB-435 2.05 µM | MDA-N 1.99 µM | NCI-H460 1.79 µM | OVCAR-4 2.01 µM | RPMI-8226 2.04 µM | SF-268 2.11 µM | SNB-19 2.81 µM | SR 4.83 µM | T47D 4.39 µM | TK-10 2.25 µM | UACC-62 2.12 µM

Cc1cnc(-c2c[nH]c3ccccc23)nc1-c1c[nH]c2ccccc12
inactive: 786-0 3.58 µM | CAKI-1 5.4 µM | CCRF-CEM 1.52 µM | HL-60 5 µM | HT-29 4.18 µM | K562 3.3 µM | MDA-MB-435 5.87 µM | MDA-N 4.2 µM | NCI-H460 2.65 µM | OVCAR-4 5.2 µM | RPMI-8226 3.9 µM | SF-268 15.9 µM | SNB-19 7.89 µM | SR 11.3 µM | T47D 1.75 µM | TK-10 5.31 µM | UACC-62 4.27 µM

Reference: ChEMBL document CHEMBL1201862, “PubChem BioAssay data set” (2004)
